# Experimental data: US7906675B2, “Compounds for the treatment of metabolic disorders” (Wellstat Therapeutics Corporation, priority 2003, dated 2011)
# System: C57BL/Ksola (db/db) mice
# Assay: Antidiabetic effects in db/db diabetic mouse model
# Format: in vivo
# Conditions: serum, 60 mg/kg daily oral for 17 days
# Source text: C57BL/Ksola (db/db) mice have a defect in leptin signaling, leading to hyperphagia, obesity, hypertriglyceridemia, and diabetes. Moreover, unlike ob/ob mice on a C57BL/6J background, db/db mice on a C57BLKS background undergo failure of their insulin-producing pancreatic islet cells, resulting in progression from hyperinsulinemia (associated with peripheral insulin resistance) to hypoinsulinemic diabetes.
# Male obese (db/db homozygote) C57BL/Ksola mice approximately 8 weeks of age, were obtained from Jackson Labs (Bar Harbor, Me.) and sorted into groups of 7 animals each animals such that the body weights (40-45 g) and serum glucose levels (≧300 mg/dl in fed state) were similar between groups. A minimum of 7 days was allowed for adaptation after arrival. All animals were maintained under controlled temperature (23° C.), relative humidity (50±5%) and light (7:00-19:00), and allowed free access to standard chow (Formulab Diet 5008, Quality Lab Products, Elkridge, Md.) and water.
# Groups of mice received daily oral doses of vehicle (1% hydroxypropylmethylcellulose) or Compound CS (60 mg/kg) for 17 days. At the end of the treatment period, blood samples were collected and serum glucose, triglycerides, and free fatty acids were measured.
smiles,measurement,setting,value
"Cc1cccc(C)c1CSc1ccc(C(=O)CCC(=O)O)cc1 [Compound CS, 4-(4-[(2,6-Dimethylbenzyl)-thio]-phenyl)-4-oxobutyric acid]",Free Fatty Acids,,2034 ± 195 µM
same,Triglycerides,,150 ± 10 mg/dL
same,Glucose,±SEM,593 ± 77 mg/dL
